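Compound exposure: 48 hours, 5 concentrations, 96-well plates. The concentration for 50% growth inhibition is given as GI50. At the TGI there is no net growth.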
What was measured:
Assay in all cases: NCI tumour cell line growth inhibition, 48 h
A498 renal = test system: A498 renal
786-0 renal = test system: 786-0 renal
NCI/ADR-RES ovarian = test system: NCI/ADR-RES ovarian
T-47D breast = test system: T-47D breast
TK-10 renal = test system: TK-10 renal
MDA-MB-231 breast = test system: MDA-MB-231 breast
HCC-2998 colon = test system: HCC-2998 colon
CAKI-1 renal = test system: CAKI-1 renal
SW-620 colon = test system: SW-620 colon
RXF 393 renal = test system: RXF 393 renal
KM12 colon = test system: KM12 colon
IGROV1 ovarian = test system: IGROV1 ovarian
NCI-H522 lung = test system: NCI-H522 lung
SF-268 CNS = test system: SF-268 CNS
SNB-75 CNS = test system: SNB-75 CNS
HOP-62 NSCLC = test system: HOP-62 NSCLC
ACHN renal = test system: ACHN renal
OVCAR-8 ovarian = test system: OVCAR-8 ovarian
OVCAR-5 ovarian = test system: OVCAR-5 ovarian
SK-MEL-28 melanoma = test system: SK-MEL-28 melanoma
MCF7 breast = test system: MCF7 breast
SNB-19 CNS = test system: SNB-19 CNS
MOLT-4 leukemia = test system: MOLT-4 leukemia
CCRF-CEM leukemia = test system: CCRF-CEM leukemia
HS 578T breast = test system: HS 578T breast
UACC-62 melanoma = test system: UACC-62 melanoma
OVCAR-4 ovarian = test system: OVCAR-4 ovarian
OVCAR-3 ovarian = test system: OVCAR-3 ovarian
RPMI-8226 leukemia = test system: RPMI-8226 leukemia
NCI-H226 lung = test system: NCI-H226 lung
HCT-116 colon = test system: HCT-116 colon
K-562 leukemia = test system: K-562 leukemia
MALME-3M melanoma = test system: MALME-3M melanoma
U251 CNS = test system: U251 CNS
LOX IMVI melanoma = test system: LOX IMVI melanoma
UO-31 renal = test system: UO-31 renal
BT-549 breast = test system: BT-549 breast
SF-295 CNS = test system: SF-295 CNS
UACC-257 melanoma = test system: UACC-257 melanoma
HCT-15 colon = test system: HCT-15 colon
HT29 colon = test system: HT29 colon
SK-MEL-5 melanoma = test system: SK-MEL-5 melanoma
MDA-MB-435 = test system: MDA-MB-435
SR leukemia = test system: SR leukemia
COLO 205 colon = test system: COLO 205 colon
A549 NSCLC = test system: A549 NSCLC
HOP-92 NSCLC = test system: HOP-92 NSCLC
EKVX NSCLC = test system: EKVX NSCLC
SF-539 CNS = test system: SF-539 CNS
SN12C renal = test system: SN12C renal
SK-OV-3 ovarian = test system: SK-OV-3 ovarian
NCI-H23 lung = test system: NCI-H23 lung
DU-145 prostate = test system: DU-145 prostate
NCI-H460 lung = test system: NCI-H460 lung
SK-MEL-2 melanoma = test system: SK-MEL-2 melanoma

## O=C(N/N=C/c1ccccc1O)c1ccccc1O
A498 renal
  GI50: 2.57 µM
  TGI: > 100 µM
786-0 renal
  GI50: 1.14 µM
  TGI: > 100 µM
NCI/ADR-RES ovarian
  GI50: 0.451 µM
  TGI: > 100 µM
T-47D breast
  GI50: 0.418 µM
  TGI: > 100 µM
TK-10 renal
  GI50: 0.518 µM
  TGI: > 100 µM
MDA-MB-231 breast
  GI50: 0.676 µM
  TGI: > 100 µM
HCC-2998 colon
  GI50: 1.91 µM
  TGI: > 100 µM
CAKI-1 renal
  GI50: 0.488 µM
  TGI: > 100 µM
SW-620 colon
  GI50: 0.877 µM
  TGI: > 100 µM
RXF 393 renal
  GI50: 1.49 µM
  TGI: > 100 µM
KM12 colon
  GI50: 0.766 µM
  TGI: > 100 µM
IGROV1 ovarian
  GI50: 0.794 µM
  TGI: > 100 µM
NCI-H522 lung
  GI50: 0.303 µM
  TGI: 17.9 µM
SF-268 CNS
  GI50: 0.802 µM
  TGI: > 100 µM
SNB-75 CNS
  GI50: 0.39 µM
  TGI: > 100 µM
HOP-62 NSCLC
  GI50: 0.568 µM
  TGI: > 100 µM
ACHN renal
  GI50: 0.68 µM
  TGI: > 100 µM
OVCAR-8 ovarian
  GI50: 0.618 µM
  TGI: > 100 µM
OVCAR-5 ovarian
  GI50: 4.96 µM
  TGI: > 100 µM
SK-MEL-28 melanoma
  GI50: 1.92 µM
  TGI: > 100 µM
MCF7 breast
  GI50: 0.337 µM
  TGI: > 100 µM
SNB-19 CNS
  GI50: 2.69 µM
  TGI: > 100 µM
MOLT-4 leukemia
  GI50: 0.637 µM
  TGI: > 100 µM
CCRF-CEM leukemia
  GI50: 0.499 µM
  TGI: > 100 µM
HS 578T breast
  GI50: 8.51 µM
  TGI: > 100 µM
UACC-62 melanoma
  GI50: 0.733 µM
  TGI: > 100 µM
OVCAR-4 ovarian
  GI50: 0.297 µM
  TGI: > 100 µM
OVCAR-3 ovarian
  GI50: 0.437 µM
  TGI: > 100 µM
RPMI-8226 leukemia
  GI50: 1.7 µM
  TGI: > 100 µM
NCI-H226 lung
  GI50: 2.43 µM
  TGI: > 100 µM
HCT-116 colon
  GI50: 0.325 µM
  TGI: > 100 µM
K-562 leukemia
  GI50: 2.62 µM
  TGI: > 100 µM
MALME-3M melanoma
  GI50: 12.6 µM
  TGI: > 100 µM
U251 CNS
  GI50: 0.926 µM
  TGI: > 100 µM
LOX IMVI melanoma
  GI50: 0.286 µM
  TGI: > 100 µM
UO-31 renal
  GI50: 3.12 µM
  TGI: > 100 µM
BT-549 breast
  GI50: 4.44 µM
  TGI: > 100 µM
SF-295 CNS
  GI50: 1.27 µM
  TGI: > 100 µM
UACC-257 melanoma
  GI50: 0.434 µM
  TGI: > 100 µM
HCT-15 colon
  GI50: 0.423 µM
  TGI: > 100 µM
HT29 colon
  GI50: 11.6 µM
  TGI: > 100 µM
SK-MEL-5 melanoma
  GI50: 1.08 µM
  TGI: 12.8 µM
MDA-MB-435
  GI50: 3.88 µM
  TGI: > 100 µM
SR leukemia
  GI50: 1.74 µM
  TGI: > 100 µM
COLO 205 colon
  GI50: 3.53 µM
  TGI: > 100 µM
A549 NSCLC
  GI50: 2.08 µM
  TGI: > 100 µM
HOP-92 NSCLC
  GI50: 0.804 µM
  TGI: > 100 µM
EKVX NSCLC
  GI50: 2.23 µM
  TGI: > 100 µM
SF-539 CNS
  GI50: 1.74 µM
  TGI: > 100 µM
SN12C renal
  GI50: 1.44 µM
  TGI: > 100 µM
SK-OV-3 ovarian
  GI50: 1.75 µM
  TGI: > 100 µM
NCI-H23 lung
  GI50: 2.9 µM
  TGI: > 100 µM
DU-145 prostate
  GI50: 0.847 µM
  TGI: > 100 µM
NCI-H460 lung
  GI50: 0.514 µM
  TGI: > 100 µM
SK-MEL-2 melanoma
  GI50: 1.03 µM
  TGI: > 100 µM

Source: PubChem BioAssay (NCI)
